We go through ten compounds from patent EP0315467A2, “Pentamidine salts useful in the treatment and prophylaxis of pneumocystis carinii pneumonia” (LyphoMed, Inc., priority 1987, dated 1989).

Structures are written as SMILES. Counter-ions that a name gives are not always drawn. Bounds are passed on as bounds.

Data set [1] in a line: Solubility in water of pentamidine salts. The data set is classed as physicochemical. As to conditions: for Solubility in H₂O: Table I.
For data set [2] the following is noted: background statement on the prior art; cited from earlier work.

Take `N=C(N)c1ccc(OCCCCCOc2ccc(C(=N)N)cc2)cc1` [Pentamidine Lactate]: the “Solubility in H₂O” value in data set [1] amounted to 100.3 mg/mL. In data set [1] (bound stated in the text), the water solubility result was “greater than 100 mg/mL”.
Regarding `N=C(N)c1ccc(OCCCCCOc2ccc(C(=N)N)cc2)cc1` [Pentamidine Tartarate], the “Solubility in H₂O” value in data set [1] is reported as 3.4 mg/mL.
For `N=C(N)c1ccc(OCCCCCOc2ccc(C(=N)N)cc2)cc1` [Pentamidine Borate], the “Solubility in H₂O” value in data set [1] stood at 6.9 mg/mL.
Regarding `N=C(N)c1ccc(OCCCCCOc2ccc(C(=N)N)cc2)cc1` [Pentamidine Nitrate], in data set [1], the “Solubility in H₂O” value was 1.8 mg/mL.
For the compound `N=C(N)c1ccc(OCCCCCOc2ccc(C(=N)N)cc2)cc1` [Pentamidine Gluconate], the “Solubility in H₂O” value in data set [1] worked out at 114.8 mg/mL. Also, in data set [1] (bound stated in the text), the solubility (in general, the dissolved amount per volume that the medium holds) is more than 100 mg/mL.
With `N=C(N)c1ccc(OCCCCCOc2ccc(C(=N)N)cc2)cc1` [Pentamidine Acetate], the “Solubility in H₂O” value in data set [1] came to 17.0 mg/mL.
Turning to `N=C(N)c1ccc(OCCCCCOc2ccc(C(=N)N)cc2)cc1` [Pentamidine Citrate], in data set [1], the “Solubility in H₂O” value is listed as 0.6 mg/mL.
Consider `N=C(N)c1ccc(OCCCCCOc2ccc(C(=N)N)cc2)cc1` [Pentamidine Phosphate], for which the “Solubility in H₂O” value in data set [1] was 16.8 mg/mL.
Still for that read-out and setting: with `N=C(N)c1ccc(OCCCCCOc2ccc(C(=N)N)cc2)cc1` [Pentamidine Sulfate] the figure was 1.4 mg/mL.
As for `N=C(N)c1ccc(OCCCCCOc2ccc(C(=N)N)cc2)cc1` [Pentamidine Hydrochloride, reference compound], in data set [1] (Hydrochloride), the “Solubility in H₂O” value stood at 14.5 mg/mL. In addition, the “solubility in water (in words)” value in data set [2] is recorded as “substantially water insoluble”.
